Assay results reported in US10851089B2, “Matrix metalloproteinase (MMP) inhibitors and methods of use thereof” (Foresee Pharmaceuticals Co., Ltd., priority 2018, dated 2020).

Tests used:
[1] = molecular target: recombinant human MMP-9 (Homo sapiens (Human), UniProt P14780); assay: MMP selectivity assay MMP-9; assay type: biochemical
Protocol: (§1) The inhibitory effect of compounds on the rate of cleaving fluorogenic MMP substrate (Enzo, BML-P128) by recombinant human MMP-12 catalytic domain (Enzo, BML-SE138) was carried out by methods known in the art. Briefly, to each well of a 96-well black opaque plate, all the reagents were sequentially added by pipetting, and the final reaction contained 4 nM of recombinant human MMP-12 catalytic domain, 4 μM of fluorogenic MMP substrate, and various concentrations (0.15 nM to 10,000 nM) of tested compound dilutions in HEPES buffer (pH 7.5) containing 10 mM of CaCl2, 0.01% Brij® 35 (polyoxyethylene (23) lauryl ether), and 0.1 mg/ml of BSA.
(§2) The enzyme and compounds were pre-incubated on a shaker to mix in wells. After an hour of mixing, fluorogenic substrate was added to each well. Reaction without enzyme was used as a blank control in the plate. The plate was then fed into a plate reader to measure fluorescence intensity at Excitation/Emission wavelengths of 340 nm/440 nm every 10 mins for at least 1 hour at 37° C. The IC50 of each compound in MMP-12 inhibition was determined by using a readout obtained at time point 30 minutes.
(§3) The MMP selectivity assay was performed by using other recombinant human MMPs, including MMP-1, MMP-2, MMP-3, MMP-7, MMP-8, MMP-9, MMP-10, MMP-13, and MMP-14. The IC50 of the compounds for the other recombinant human MMPs was determined as described above in Example 1, and are shown in Table 2.

[2] = molecular target: recombinant human MMP-1 (Homo sapiens (Human), UniProt P03956); assay: MMP selectivity assay MMP-1; assay type: biochemical
Protocol: as §1, §2, §3

[3] = molecular target: recombinant human MMP-10 (Homo sapiens (Human), UniProt P09238); assay: MMP selectivity assay MMP-10; assay type: biochemical
Protocol: as §1, §2, §3

[4] = molecular target: recombinant human MMP-3 (Homo sapiens (Human), UniProt P08254); assay: MMP selectivity assay MMP-3; assay type: biochemical
Protocol: as §1, §2, §3

[5] = test system: bleomycin-induced unilateral lung fibrosis; assay: Bleomycin-induced SD rat unilateral lung fibrosis model (IPF); assay type: in vivo; parameters: Left lung bronchial and arteriole damage score, fibrosis core / Left lung bronchial and arteriole damage score, fibrosis border: scale not given here; Fibrosis score 1-3 (ratio of left lung fibrosis score) / Fibrosis score 4-8 (ratio of left lung fibrosis score) / Left lung fibrosis area: unit not given here; conditions: for Left lung bronchial and arteriole damage score, fibrosis border / Left lung bronchial and arteriole damage score, fibrosis core: 14 days; for Left lung bronchial and arteriole damage score, fibrosis border: model 6.56 ± 0.51; for Left lung bronchial and arteriole damage score, fibrosis core: model 8.34 ± 0.24; for Left lung fibrosis score (Ashcraft): model 3.7 ± 0.1; for Fibrosis score 1-3 (ratio of left lung fibrosis score): model 44.0 ± 3.1; for Fibrosis score 4-8 (ratio of left lung fibrosis score): model 56.0 ± 3.1; for Left lung fibrosis area: model 69.1 ± 3.3
Protocol: The purpose of this study was to evaluate the therapeutic effect of FC-4 on bleomycin (BLM) induced unilateral lung fibrosis model in Sprague Dawley (SD) rats. Male SD rats (n=50) were randomly divided into the following groups: Sham group (n=10), Model group (n=10), FC-4 administered at 10 mg/kg/day group (n=10), FC-4 administered at 30 mg/kg/day group (n=10), and FC-4 administered at 100 mg/kg/day group (n=10). All test drugs were delivered orally starting from day 8 of modeling for 14 days. Saline solution was taken for sham and model groups once a day, and FC-4 twice a day for drug treatment groups. Rats were anesthetized and the trachea was exposed. Saline was administrated via direct intra-trachea injection in the sham group, and the other groups' animals received a BLM injection at a dose of 3 mg/kg in volume of 1.0 ml/kg. All animals were processed using a non invasive lung function test with EMMS Whole Body Plethysmography system at pre-modeling, and at days 3, 7, 11, 14, 18 and 21 of modeling. One day after the last drug delivery, the left lung of all animals was perfused with 10% formalin, and processed for pathology analysis.
Animals: Species and quality level: SD rats, SPF grade. Gender and number: male, 93. Purchasing body weight range: 260-280 g. Company Certificate No.: SCXX (Jing) 2012-001, Beijing Vital River Laboratory Animal Technology Co., Ltd. Animal Housing: Rats were housed in the Animal House Facility of the Nanjing BioSciKin Co. Ltd. under international standards for temperature, humidity and light control system. The animal use protocol was reviewed and approved by the Institutional Animal Care and Use Committee (IACUC) of KCI Biotech Inc. All experimental procedures were conducted in conformity with institutional guidelines of KCI Biotech Inc.
Model Establishment: This study was carried out in strict accordance with the SOP institutional guidelines for the care and use of laboratory animals. Rats were anesthetized by intraperitoneal injection of pentobarbital sodium at dose of 50 mg/kg. Then rat neck skin was disinfected and opened in layers. The trachea was exposed carefully. Bleomycin (BLM) was directly injected into the left main bronchus at a dose of 3 mg/kg body weight in volume of 1.0 ml/kg via a cannula. After closing the trachea and skin in layers the animal was moved on an electric heat pad at 37° C. to await waking up from the anesthesia before returning to holding cages with free access to water and diet.
Experiment Grouping: Rats were assigned into 5groups: Sham (Group-1, n=10), Model (Group-2, n=10), FC-4-Low dose (Group-3, 10 mg/kg/day, n=10), FC-4-Middle dose (Group-4, 30 mg/kg/day, n=10), FC-4-High dose (Group-5, 100 mg/kg/day, n=10) (Table 1).
Drug Administration: Test article FC-4 were designed as an oral administration via a gastric perfusion. FC-4 was delivered twice a day starting from day-8 of modeling for 14 days. (Table 3.1).
Endpoint: a) Non invasive lung function test: All animals were given a non-invasive lung function examination with EMMS Whole Body Plethysmography (WBP) system at multiple time points during the study periods, including at pre-IPF modeling, day-3 of IPF, day-7 of IPF before dosing, day-11 of IPF, day-14 of IPF, day-18 of IPF and day-21 of IPF before sacrificing the animals, focusing on the parameters of tidal volume (TV), breath rate, inspiratory volume per minute (MV) and Penh. index. b) Left lung collection for pathology analysis: After the last examination of lung function, all animals were euthanized according to the standard SOP at KCI. After confirming the animal death, each animal received a systemic perfusion with 10% formaldehyde solution, then the left lung was harvested and perfused again with an equal volume of 10% formaldehyde solution (3 ml for each lung). […]

recombinant human MMP-10, sequence (P09238 99-476): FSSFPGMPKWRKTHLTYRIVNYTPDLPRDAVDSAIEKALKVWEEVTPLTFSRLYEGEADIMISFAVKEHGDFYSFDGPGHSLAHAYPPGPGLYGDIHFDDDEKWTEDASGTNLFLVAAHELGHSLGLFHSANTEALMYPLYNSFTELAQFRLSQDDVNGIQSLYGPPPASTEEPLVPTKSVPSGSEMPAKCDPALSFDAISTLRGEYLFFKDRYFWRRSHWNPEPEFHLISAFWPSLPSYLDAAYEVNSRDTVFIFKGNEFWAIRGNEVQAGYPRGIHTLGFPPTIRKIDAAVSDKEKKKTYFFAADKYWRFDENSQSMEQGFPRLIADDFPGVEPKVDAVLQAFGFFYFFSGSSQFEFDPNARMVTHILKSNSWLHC
recombinant human MMP-9, sequence (P14780 94-707): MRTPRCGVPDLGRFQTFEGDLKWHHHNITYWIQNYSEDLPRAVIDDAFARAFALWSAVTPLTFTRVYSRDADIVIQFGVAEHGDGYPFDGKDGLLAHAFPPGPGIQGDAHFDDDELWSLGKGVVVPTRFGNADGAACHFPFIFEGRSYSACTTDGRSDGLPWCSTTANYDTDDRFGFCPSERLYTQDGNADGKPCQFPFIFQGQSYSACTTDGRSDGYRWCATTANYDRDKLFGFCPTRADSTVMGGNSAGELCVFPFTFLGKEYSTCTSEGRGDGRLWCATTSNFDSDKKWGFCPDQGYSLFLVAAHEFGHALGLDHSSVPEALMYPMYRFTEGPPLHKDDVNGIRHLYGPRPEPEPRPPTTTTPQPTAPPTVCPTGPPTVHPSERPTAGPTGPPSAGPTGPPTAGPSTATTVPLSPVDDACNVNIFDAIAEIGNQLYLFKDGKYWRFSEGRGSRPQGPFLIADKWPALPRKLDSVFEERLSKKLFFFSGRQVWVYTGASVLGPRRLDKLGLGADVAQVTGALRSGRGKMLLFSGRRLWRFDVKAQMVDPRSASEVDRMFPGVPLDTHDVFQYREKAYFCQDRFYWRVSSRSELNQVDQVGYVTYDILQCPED
recombinant human MMP-3, sequence (P08254 100-477): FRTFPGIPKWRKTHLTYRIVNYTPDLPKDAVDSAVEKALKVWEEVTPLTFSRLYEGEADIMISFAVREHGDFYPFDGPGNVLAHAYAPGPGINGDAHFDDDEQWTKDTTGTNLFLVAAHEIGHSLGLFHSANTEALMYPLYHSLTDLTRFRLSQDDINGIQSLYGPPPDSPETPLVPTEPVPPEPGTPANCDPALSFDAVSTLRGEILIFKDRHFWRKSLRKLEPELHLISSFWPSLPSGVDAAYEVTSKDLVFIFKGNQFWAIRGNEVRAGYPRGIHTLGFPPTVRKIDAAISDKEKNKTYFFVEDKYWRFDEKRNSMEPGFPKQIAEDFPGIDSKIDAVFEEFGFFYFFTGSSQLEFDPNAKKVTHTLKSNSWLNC
recombinant human MMP-1, sequence (P03956 100-469): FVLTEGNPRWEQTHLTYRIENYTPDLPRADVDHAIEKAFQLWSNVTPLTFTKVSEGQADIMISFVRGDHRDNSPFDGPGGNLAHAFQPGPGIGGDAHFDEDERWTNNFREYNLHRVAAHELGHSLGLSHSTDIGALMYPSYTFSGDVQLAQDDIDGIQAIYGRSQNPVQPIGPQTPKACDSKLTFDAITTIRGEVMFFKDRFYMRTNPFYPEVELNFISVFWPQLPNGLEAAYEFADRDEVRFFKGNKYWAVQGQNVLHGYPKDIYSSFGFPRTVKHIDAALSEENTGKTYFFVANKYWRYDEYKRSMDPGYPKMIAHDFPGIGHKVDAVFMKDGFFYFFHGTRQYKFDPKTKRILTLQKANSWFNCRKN

Cc1cc(COc2ccc(Sc3ccoc3C3NC(=O)NC3=O)cc2)ccn1 (stereo not drawn) [FC-4]
IC50 [1]: 100 to 1000 nM
IC50 [2]: > 10000 nM
IC50 [3]: 100 to 1000 nM
IC50 [4]: 100 to 1000 nM
Left lung bronchial and arteriole damage score, fibrosis border ([5]; 10 mg/kg/d p.o. BID): 4.2 ± 0.516
Left lung bronchial and arteriole damage score, fibrosis core ([5]; 10 mg/kg/d p.o. BID): 6.04 ± 0.19
Left lung fibrosis score (Ashcraft) ([5]; 10 mg/kg/d p.o. BID): 2.5 ± 0.2
Fibrosis score 1-3 (ratio of left lung fibrosis score) ([5]; 10 mg/kg/d p.o. BID): 82.0 ± 5.5
Fibrosis score 4-8 (ratio of left lung fibrosis score) ([5]; 10 mg/kg/d p.o. BID): 18.0 ± 5.5
Left lung fibrosis area ([5]; 10 mg/kg/d p.o. BID): 75.1 ± 3.0
Left lung bronchial and arteriole damage score, fibrosis border ([5]; 30 mg/kg/d p.o. BID): 4.76 ± 0.16
Left lung bronchial and arteriole damage score, fibrosis core ([5]; 30 mg/kg/d p.o. BID): 6.18 ± 0.26
Left lung fibrosis score (Ashcraft) ([5]; 30 mg/kg/d p.o. BID): 2.6 ± 0.1
Fibrosis score 1-3 (ratio of left lung fibrosis score) ([5]; 30 mg/kg/d p.o. BID): 81.0 ± 4.8
Fibrosis score 4-8 (ratio of left lung fibrosis score) ([5]; 30 mg/kg/d p.o. BID): 19.0 ± 4.8
Left lung fibrosis area ([5]; 30 mg/kg/d p.o. BID): 66.4 ± 2.9
Left lung bronchial and arteriole damage score, fibrosis border ([5]; 100 mg/kg/d p.o. BID): 4.18 ± 0.53
Left lung bronchial and arteriole damage score, fibrosis core ([5]; 100 mg/kg/d p.o. BID): 6.28 ± 0.21
Left lung fibrosis score (Ashcraft) ([5]; 100 mg/kg/d p.o. BID): 2.4 ± 0.2
Fibrosis score 1-3 (ratio of left lung fibrosis score) ([5]; 100 mg/kg/d p.o. BID): 84.0 ± 4.3
Fibrosis score 4-8 (ratio of left lung fibrosis score) ([5]; 100 mg/kg/d p.o. BID): 16.0 ± 4.3
Left lung fibrosis area ([5]; 100 mg/kg/d p.o. BID): 70.5 ± 3.0
Body weight recovery ([5]; CPD treatment groups vs model group): no significant difference in body recovery
Share of Ashcraft score ≤ score 3 ([5]; all drug treatment groups, model over 60% ≥ score 4): ~80%
MMP-12 expression in fibrosis core (IHC) ([5]; clear dose dependent reduction (p>0.05 as printed)): significant reduction
Collagen-I deposition in fibrosis core (IHC) ([5]; each dose, p<0.05): significant dosing dependent reduction
Collagen-IV deposition in fibrosis core (IHC) ([5]; p<0.05): significant dose dependent reduction
Elastin expression in fibrosis core (IHC) ([5]; p<0.05): significant reduction
TGF-β1 expression in fibrosis core (IHC) ([5]; p<0.05): significant reduction
Non invasive lung function (TV, MV, breath rate, Penh) ([5]; vs vehicle treated animals, all doses): did not show any significant changes
